Results on five compounds are retold here after patent US20090131493A1, “SUBSTITUTED BENZIMIDAZOLES FOR TREATMENT OF HISTOMONIASIS” (BAYER HEALTHCARE AG, priority 2005, published 2009).

The subject of data set [1] is Heterakis gallinarum. Particulars: treatment for 14 days after the time of infection; directed against Heterakis gallinarum, not H. meleagridis; cited from earlier work.
Data set [2] deals with histomonas. Particulars: cited from earlier work.
Data set [3] relates to Histomonas meleagridis. In words: Test 2: cage trial, turkey chicks intracloacally infected with Histomonas meleagridis, liver and caecum lesions. The class given is in vivo. The note with it: for Caecum lesions / Liver lesions: scale 0 (no lesions) to 4 (most severe lesions). The source says: (§1) Young, susceptible turkey cock chicks were kept in cages and underwent intracloacal infection in a conventional way at an age of 2 weeks with about 5 log 10 infectious Histomonas meleagridis microorganisms. With the test groups which had been treated with the test compounds, two control groups were kept for comparison purposes (infected/untreated and uninfected/untreated). The test groups consisted of 6 to 10 turkeys. The test compounds, either the compound of the formula (I-1) or (I-2), were administered to the treated test groups 1 day before the infection and 13 days thereafter, with the feed. At the end of the trial, the animals were sacrificed and examined for lesions typical of histomoniasis (“blackhead disease”).

The subject of data set [4] is Histomonas meleagridis. As to the kind of experiment: Test 1: cage trial, turkey chicks intracloacally infected with Histomonas meleagridis, weight gain. It is filed as in vivo. Particulars: 1 day before to 13 days after infection, uninfected/untreated group 4 set at 100%.
From the text: as §1

For data set [5] the following is noted: turkey cock; cited from earlier work.

Turning to `COC(=O)Nc1nc2ccc(Sc3ccccc3)cc2[nH]1` [fenbendazole], in data set [1], the activity in vivo result is “prophylactic activity”. Moreover, the “activity on histomonas in vitro” value in data set [2] is “inadequate activity”.
Consider `CCCSc1ccc2nc(NC(=O)OC)[nH]c2c1` [albendazole], for which, in data set [1], the activity in vivo entry is “prophylactic activity”. Besides, the “activity on histomonas in vitro” value in data set [2] was “inadequate activity”.
On to `Cc1oc(=O)oc1Cn1c(C(F)(F)F)nc2c(Cl)cc3c(c21)OC(F)(F)C(F)(F)O3` [compound (I-2)], for which, in data set [3] (10 ppm in the feed), the Caecum lesions came out at 2.1 and the Liver lesions is on record as 0. In data set [3] (30 ppm in the feed), this compound returned a Caecum lesions of 0.8 and a Liver lesions of 0. For the same compound, the “effect on caecum lesions (in words)” value in data set [3] (Test 2, summary in text) was “reduced the caecum lesions”. For the same compound, the Weight gain in data set [4] (10 ppm in the feed) was 35%.
For the compound `CCN(Cn1c(C(F)(F)F)nc2c(Br)cc3c(c21)OC(F)(F)C(F)(F)O3)C(=O)OC` [compound (I-1)], the Caecum lesions in data set [3] (5 ppm in the feed) is on record as 3.5; in data set [3] (15 ppm in the feed), 3. The Liver lesions is recorded as 0.8 in data set [3] (5 ppm in the feed) and 0 in data set [3] (15 ppm in the feed). In data set [4] (5 ppm in the feed), this compound registered a Weight gain of 61%.
With `O=[N+]([O-])c1cc([As](=O)(O)O)ccc1O` [roxarsone], in data set [5], the “effect of doubling the dosage” value is recorded as “impaired motor functions”.
